From patent EP2929785A1, “A PLA inhibitor for inhibition of fat absorption” (PAT GmbH, priority 2014, dated 2015)

Experiments:
[1] = test system: fatty acid uptake complex components; assay: Transcript levels of fatty acid uptake complex components by semi-quantitative RT-PCR in HepG2 cells; assay type: cell-based, human; conditions: after 1 h of treatment, UDCA-LPE 50 µM (Fig. 6)
Description: The following forward and reverse primers (Sigma) were used for RT-PCR: iPLA2ß, [NT] (SEQ ID NO: 1) and [NT] (SEQ ID NO: 2); CD36, [NT] (SEQ ID NO: 3) and [NT] (SEQ ID NO: 4); […] (SEQ ID NO: 5) and [NT] (SEQ ID NO: 6); and caveolin-1, [NT] (SEQ ID NO: 7) and reverse [NT] (SEQ ID NO: 8). The primers for FATP4 and ß-actin (internal control) were the same as those previously used as described in […] et al. Am J Physiol Endocrinol Metab 2011; 301, 785-796.

p-JNK1 = assay: Cytosolic p-JNK1 levels in HepG2 cells (western blotting); assay type: cell-based, human
Protocol: Immunoblotting was performed according to a standard protocol as set out in Sun Q., et al. Biol Med (Maywood). 2012; 237: 178-185. The following primary antibodies to human proteins were used: mouse a-phosphorylated c-Jun N-terminal kinase 1 (p-JNK1) (88.20; Santa Cruz Biotechnology Inc., Heidelberg, Germany) at 1:500; mouse a-CD36 (1.BB.344; Santa Cruz Biotechnology Inc.) at 1:200; rabbit a-iPLA2ß (558-588; Abcam) at 1:500; mouse a-FABPPM (331-430; Abnova, Heidelberg, Germany) at 1:1,000; mouse a-FATP4 (1F4-1B10; Abnova) at 1:500; mouse a-caveolin-1 (C20B; Santa Cruz Biotechnology Inc.) at 1:500; mouse a-flotilin1 (F-3; Santa Cruz Biotechnology Inc.) at 1:500; and mouse a-ß-actin (AC-15; Sigma) at 1:100,000. Anti-mouse or -rabbit HRP (96910 and 107487, respectively; Dianova, Hamburg, Germany) were used at 1:10,000 dilution as secondary antibodies. To estimate the protein concentration a semi-quantitative densitometry was performed as described in Sun Q et al. (loc cit.).

iPLA2ß-/- hepatocytes = assay: Fatty acid influx in primary hepatocytes from iPLA2ß-/- mice; assay type: cell-based; conditions: UDCA-LPE pretreatment (Fig. 4B)
wild-type hepatocytes = assay: Fatty acid influx in primary hepatocytes from wild-type mice; assay type: cell-based; conditions: UDCA-LPE pretreatment (Fig. 4B)
[2] = target: T1, fatty acid uptake complex in the DRM-PM consisting of CD36, FABPPM, caveolin1, and iPLA2ß (Homo sapiens, UniProt O60733); assay: Disassembly of the fatty acid uptake complex in DRM-PM of HepG2 cells (immunoprecipitation, western blotting); assay type: cell-based
T1 construct: western blotting of DRM-PM isolated from these cells; endogenous in cells; host or cells: HepG2
T1 sequence (O60733 1-806): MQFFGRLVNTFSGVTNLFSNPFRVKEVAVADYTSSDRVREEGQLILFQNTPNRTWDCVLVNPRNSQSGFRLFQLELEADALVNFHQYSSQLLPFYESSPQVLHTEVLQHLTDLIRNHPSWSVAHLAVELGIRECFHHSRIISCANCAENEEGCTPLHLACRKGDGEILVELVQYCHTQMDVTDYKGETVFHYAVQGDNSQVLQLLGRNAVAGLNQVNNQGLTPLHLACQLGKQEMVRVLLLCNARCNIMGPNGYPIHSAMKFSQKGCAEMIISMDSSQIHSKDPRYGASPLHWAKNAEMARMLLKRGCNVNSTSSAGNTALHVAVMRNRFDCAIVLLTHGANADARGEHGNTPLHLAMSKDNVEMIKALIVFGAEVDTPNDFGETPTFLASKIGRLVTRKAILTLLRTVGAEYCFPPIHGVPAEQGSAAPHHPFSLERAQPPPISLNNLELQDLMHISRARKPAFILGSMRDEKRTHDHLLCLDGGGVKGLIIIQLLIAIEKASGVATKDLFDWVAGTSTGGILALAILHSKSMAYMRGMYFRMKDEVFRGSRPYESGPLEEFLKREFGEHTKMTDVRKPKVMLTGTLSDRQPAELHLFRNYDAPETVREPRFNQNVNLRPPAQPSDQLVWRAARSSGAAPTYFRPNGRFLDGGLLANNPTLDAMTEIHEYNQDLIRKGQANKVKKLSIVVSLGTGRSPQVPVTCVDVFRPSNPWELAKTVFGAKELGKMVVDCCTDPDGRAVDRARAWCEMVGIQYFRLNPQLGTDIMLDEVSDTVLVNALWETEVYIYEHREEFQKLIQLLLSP
Protocol: Detergent-resistant PM (DRM-PM) and non-DRM-PM fractions were isolated and characterized as previously described (Pohl J et al. Mol Biol Cell. 2005; 16: 24-31). Subcellular membrane fractions were prepared by centrifugation at 100,000 g for 1 h to obtain homogenate pellets. Nuclear extracts were obtained by centrifugation at 500 g for 5 min. Pellets were washed and resuspended in a buffer solution containing […] (pH 7.4), 100 mM NaCl, and 0.1 mM EDTA (Marzluff WF et al. Meth Cell Biol. 1987; 317-331)). The protein concentration was determined by the Bradford method (Bio- Rad, Munich, Germany).
Immunoblotting was performed according to a standard protocol as set out in Sun Q., et al. Biol Med (Maywood). 2012; 237: 178-185. […] To estimate the protein concentration a semi-quantitative densitometry was performed as described in Sun Q et al. (loc cit.). […]

HepG2 cells = assay: Cellular steatohepatitis model in HepG2 cells; assay type: cell-based, human; conditions: UDCA-LPE 100 µM, 1 h, before or after 3 h 400 µM oleate:albumin (4:1)
Protocol: To induce steatosis, HepG2 cells were incubated with 400 µM oleate:albumin (4:1) for 3 h. The effect of UDCA-LPE (100 µM; 1 h) relative to PBS (control) was examined by pretreating cells before or after the 3- h fatty acid feeding period (with continuous fatty acid feeding thereafter). Fatty acid loading was examined by staining cells with Oil Red (Sigma) and by immunodetection of triglycerides (ab65336; Abcam, Cambridge, UK). In addition, the release of lactate dehydrogenase (LDH) (11644793001; Roche, Mannheim, Germany) was determined as a measure of apoptosis.

Substance: ursodeoxycholatelysophosphatidylethanolamide [UDCA-LPE]
- transcript levels of all fatty acid uptake complex components [1]: < 10 % of initial values
- pretreatment time achieving the threshold LPC concentration at which p-JNK1 began to decrease (p-JNK1; > 50 µM UDCA-LPE): > 30 min
- pretreatment concentration achieving the threshold LPC concentration at which p-JNK1 began to decrease (p-JNK1; for > 30 min): > 50 µM
- fatty acid influx (iPLA2ß-/- hepatocytes): not
- fatty acid influx (wild-type hepatocytes): inhibited
- incubation time at which the fatty acid uptake complex began to disassemble ([2]; 50 µM): ≥ 30 min
- concentration at which the fatty acid uptake complex began to disassemble ([2]; 30 min of incubation): ≥ 50 µM
- fatty acid-induced inflammation (LDH release) (HepG2 cells): prevented or reversed
- steatosis (HepG2 cells): prevented or reversed
